According to paper PMC6151589, “Identification of Optically Active Pyrimidine Derivatives as Selective 5-HT2C Modulators” (Molecules : A Journal of Synthetic Chemistry and Natural …, 2017):
Where two headings read alike, the source gives them in different places.

How the values were obtained:
Type in all cases: binding
5-HT2B = target: T1, 5-HT2B (Homo sapiens, UniProt P41595); test: radioligand displacement, membranes
T1 construct: gene HTR2B; human recombinant receptor; crude membrane fractions of transfected HEK293 or CHO cells
T1 sequence (P41595 whole entry): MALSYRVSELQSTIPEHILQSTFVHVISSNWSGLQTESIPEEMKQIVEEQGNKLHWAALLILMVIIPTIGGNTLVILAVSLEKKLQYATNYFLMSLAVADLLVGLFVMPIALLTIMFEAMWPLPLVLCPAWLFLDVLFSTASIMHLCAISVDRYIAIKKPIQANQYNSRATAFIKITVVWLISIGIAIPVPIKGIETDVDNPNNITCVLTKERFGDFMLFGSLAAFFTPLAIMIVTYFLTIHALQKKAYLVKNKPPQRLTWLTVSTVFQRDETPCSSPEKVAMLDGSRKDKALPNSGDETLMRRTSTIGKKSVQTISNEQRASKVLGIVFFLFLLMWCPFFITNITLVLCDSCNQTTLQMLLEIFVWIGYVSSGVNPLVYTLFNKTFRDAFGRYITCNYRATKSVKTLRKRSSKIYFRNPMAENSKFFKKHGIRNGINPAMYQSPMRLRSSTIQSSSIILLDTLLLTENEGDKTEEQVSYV
Description: radioligand displacement, membranes on 5-HT2B

5-HT2A = target: T2, 5-HT2A (Homo sapiens, UniProt P28223); test: radioligand displacement, membranes
T2 construct: gene HTR2A; human recombinant receptor; crude membrane fractions of transfected HEK293 or CHO cells
T2 sequence (P28223 whole entry): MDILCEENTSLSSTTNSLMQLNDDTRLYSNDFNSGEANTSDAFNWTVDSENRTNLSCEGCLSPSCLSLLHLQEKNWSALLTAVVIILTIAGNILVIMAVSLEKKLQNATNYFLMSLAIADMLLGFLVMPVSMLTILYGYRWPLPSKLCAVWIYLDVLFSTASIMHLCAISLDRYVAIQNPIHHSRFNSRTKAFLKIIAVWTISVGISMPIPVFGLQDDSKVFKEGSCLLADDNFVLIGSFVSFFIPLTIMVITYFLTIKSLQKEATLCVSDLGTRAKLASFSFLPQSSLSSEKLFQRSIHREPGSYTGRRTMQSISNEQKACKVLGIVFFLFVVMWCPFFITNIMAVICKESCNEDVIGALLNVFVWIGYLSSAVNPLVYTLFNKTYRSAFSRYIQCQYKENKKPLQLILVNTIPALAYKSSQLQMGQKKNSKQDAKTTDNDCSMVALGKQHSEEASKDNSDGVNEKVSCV
Description: radioligand displacement, membranes on 5-HT2A

5-HT2C [1] = target: T3, 5-HT2C (Homo sapiens, UniProt P28335); test: [3H]mesulergine displacement, membranes
T3 construct: gene HTR2C; human recombinant receptor; crude membrane fractions of transfected cells (CHO-K1; HEK293 or CHO)
T3 sequence (P28335 33-458): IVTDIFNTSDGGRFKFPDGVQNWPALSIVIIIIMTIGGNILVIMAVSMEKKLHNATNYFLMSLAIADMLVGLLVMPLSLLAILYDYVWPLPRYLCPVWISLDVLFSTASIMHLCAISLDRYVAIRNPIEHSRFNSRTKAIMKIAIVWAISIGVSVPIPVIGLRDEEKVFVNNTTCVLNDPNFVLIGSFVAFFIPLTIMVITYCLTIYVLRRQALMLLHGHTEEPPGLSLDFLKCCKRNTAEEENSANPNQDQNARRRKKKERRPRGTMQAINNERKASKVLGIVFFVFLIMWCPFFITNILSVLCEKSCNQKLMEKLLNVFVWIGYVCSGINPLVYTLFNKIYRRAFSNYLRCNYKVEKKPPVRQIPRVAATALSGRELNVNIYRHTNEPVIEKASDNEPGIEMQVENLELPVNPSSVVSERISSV
Description: [3H]mesulergine displacement, membranes on 5-HT2C

5-HT2C [2] = target: T3, 5-HT2C; test: [3H]mesulergine displacement, membranes; settings: read-out: 5-HT2B / Ki

| Compound | Ki (5-HT2B) [nM] | Ki (5-HT2A) [nM] | Ki (5-HT2C [1]) [nM] | Ki (5-HT2C [2]) [nM] |
| --- | --- | --- | --- | --- |
| CC(Oc1nc(N2CCNC[C@H]2C)ncc1F)c1cccc(F)c1 (mixture of isomers) [4d, 5-Fluoro-4-(1-(3-fluorophenyl)ethoxy)-2-((R)-2-methylpiperazin-1-yl)pyrimidine] | 4.8 | 213 | 2.7 |  |
| CC(Oc1nc(N2CCNC[C@H]2C)ncc1F)c1ccc(F)cc1 (mixture of isomers) [4e, 5-Fluoro-4-(1-(4-fluorophenyl)ethoxy)-2-((R)-2-methylpiperazin-1-yl)pyrimidine] | 10 | 426 | 4.5 |  |
| CC(CCc1cccc(F)c1)Oc1nc(N2CCNC[C@H]2C)ncc1F (mixture of isomers) [4h, 5-Fluoro-4-((4-(3-fluorophenyl)butan-2-yl)oxy)-2-((R)-2-methylpiperazin-1-l)pyrimidine] | 16 | 170 | 14 |  |
| CC(CCc1ccc(F)cc1)Oc1nc(N2CCNC[C@H]2C)ncc1F (mixture of isomers) [4i, 5-Fluoro-4-((4-(4-fluorophenyl)butan-2-yl)oxy)-2-((R)-2-methylpiperazin-1-yl)pyrimidine] | 22 | 173 | 12 |  |
| C[C@@H]1CNCCN1c1ncc(F)c(OCc2ccccc2F)n1 [4a, (R)-5-Fluoro-4-((2-fluorobenzyl)oxy)-2-(2-methylpiperazin-1-yl)pyrimidine] | 56 | 80 | 31 |  |
| C[C@@H]1CNCCN1c1ncc(F)c(OCc2cccc(F)c2)n1 [4b, (R)-5-Fluoro-4-((3-fluorobenzyl)oxy)-2-(2-methylpiperazin-1-yl)pyrimidine] | 14 | 43 | 5.1 |  |
| C[C@@H]1CNCCN1c1ncc(F)c(OCc2ccc(F)cc2)n1 [4c, (R)-5-Fluoro-4-((4-fluorobenzyl)oxy)-2-(2-methylpiperazin-1-yl)pyrimidine] | 14 | 51 | 22 |  |
| C[C@@H]1CNCCN1c1ncc(F)c(OCCCc2cccc(F)c2)n1 [4f, (R)-5-Fluoro-4-(3-(3-fluorophenyl)propoxy)-2-(2-methylpiperazin-1-yl)pyrimidine] | 24 | 138 | 20 |  |
| C[C@@H]1CNCCN1c1ncc(F)c(OCCCc2ccc(F)cc2)n1 [4g, (R)-5-Fluoro-4-(3-(4-fluorophenyl)propoxy)-2-(2-methylpiperazin-1-yl)pyrimidine] | 22 | 90 |  | 22 |
